In patent US20030044399A1, “Method of treatment” (SmithKline Beecham Corporation, priority 1998, published 2003) one finds Ki data, which are given here for 22 molecules.

The target of experiment [1] is Schisto B 2 (Schistosoma mansoni, UniProt Q95PM1). Kind of experiment: Cysteine protease inhibition, progress curve method, schistosoma B 2. The experiment is classed as biochemical. The following applies: 10 uM Cbz-Phe-Arg-AMC, 100 mM Na acetate pH 5.5, 5 mM cysteine. On the procedure:
(§1) Standard assay conditions for the determination of kinetic constants used 10 uM fluorogenic peptide substrate, Cbz-Phe-Arg-AMC for the cysteine proteases from Leishmania spp and Schistosoma Mansoni, Cbz-Leu-Arg-AMC for the cysteine proteases from Plasmodium falciparum and Trypanosoma brucei rhodesiensi, and Ac-Lys-Glu-Lys-Leu-Arg-AMC (4 uM final substrate concentration) for the cysteine protease from Trypoanosoma cruzi, and were determined in 100 mM Na acetate at pH 5.5 containing 5 mM cysteine. Stock substrate solutions were prepared at concentrations of […] in DMSO with 10 uM (4 uM for Ac-Lys-Glu-Lys-Leu-Arg-AMC) final substrate concentration in the assays. The final DMSO concentration was 2% and the final volume was 100 uL. All assays were conducted at ambient temperature. Product progress curves were generated over 20 to 30 minutes following formation of AMC product.
(§2) Potential inhibitors were evaluated using the progress curve method. Assays were carried out in the presence of variable concentrations of test compound. Reactions were initiated by addition of enzyme to buffered solutions of inhibitor and substrate. Data analysis was conducted according to one of two procedures depending on the appearance of the progress curves in the presence of inhibitors. For those compounds whose progress curves were linear, apparent inhibition constants (Ki,app) were calculated according to equation 1 (Brandt et al., Biochemitsry, 1989, 28, 140):
(§3) v=VmA/[Ka(1+I/Ki,app)+A] (1)
(§4) Where v is the velocity of the reaction with maximal velocity Vm, A is the concentration of substrate with Michaelis constant of Ka, and I is the concentration of inhibitor.
(§5) [AMC]=vsst+(v0−vss)[1−exp (−kobst)]/kobs (2)
(§6) Where [AMC] is the concentration of product formed over time t, v0 is the initial reaction velocity and vss is the final steady state rate. Values for kobs were then analyzed as a linear function of inhibitor concentration to generate an apparent second order rate constant (kobs/inhibitor concentration or kobs/[I]) describing the time-dependent inhibition. A complete discussion of this kinetic treatment has been fully described (Morrison et al., Adv. Enzymol. Relat. Areas Mol. Biol., 1988, 61, 201).
(§7) Exemplary inhibition data for the compounds used in the present method collected in accordance with the above-described procedure are listed in Table I.

Experiment [2] addresses Schisto B 1 (Schistosoma mansoni, UniProt P25792). The experiment can be described thus: Cysteine protease inhibition, progress curve method, schistosoma B 1. The following applies: 10 uM Cbz-Phe-Arg-AMC, 100 mM Na acetate pH 5.5, 5 mM cysteine; read-out: Schisto B 1 Ki. The experiment is classed as biochemical. On the procedure: as §1, §2, §3, §4, §5, §6, §7
Experiment [3] concerns the target Cruzain (Trypanosoma cruzi, UniProt P25779). Kind of experiment: Cysteine protease inhibition, progress curve method, cruzain. The following applies: 4 uM Ac-Lys-Glu-Lys-Leu-Arg-AMC, 100 mM Na acetate pH 5.5, 5 mM cysteine; read-out: Cruzain Ki. The experiment is classed as biochemical. The essentials: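 Kinetic constants from AMC-release progress curves over 20–30 min at ambient temperature in 100 mM Na acetate pH 5.5, 5 mM cysteine, 2% DMSO; enzyme added last to inhibitor plus substrate. Substrates: 10 uM Cbz-Phe-Arg-AMC (Leishmania, Schistosoma), 10 uM Cbz-Leu-Arg-AMC (falcipain), 4 uM Ac-Lys-Glu-Lys-Leu-Arg-AMC (cruzain). Ki,app from linear curves; time-dependent inhibition as kobs/[I].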

The target of experiment [4] is Rhodazain (Trypanosoma brucei rhodesiense, UniProt Q95PM0). The experiment can be described thus: Cysteine protease inhibition, progress curve method, rhodazain. The format is biochemical, Trypanosoma brucei rhodesiensi. The following applies: Rhodazain Ki (nM), 10 uM Cbz-Leu-Arg-AMC, 100 mM Na acetate pH 5.5, 5 mM cysteine.
Experiment [5] addresses Falcipain 2 (Plasmodium falciparum, UniProt Q8I6U4). The experiment can be described thus: Cysteine protease inhibition, progress curve method, falcipain. The experiment is classed as biochemical. The following applies: 10 uM Cbz-Leu-Arg-AMC, 100 mM Na acetate pH 5.5, 5 mM cysteine. On the procedure:
as §1, §2, §3, §4, §5, §6, §7

Chain of Rhodazain (Q95PM0 entry or part of it): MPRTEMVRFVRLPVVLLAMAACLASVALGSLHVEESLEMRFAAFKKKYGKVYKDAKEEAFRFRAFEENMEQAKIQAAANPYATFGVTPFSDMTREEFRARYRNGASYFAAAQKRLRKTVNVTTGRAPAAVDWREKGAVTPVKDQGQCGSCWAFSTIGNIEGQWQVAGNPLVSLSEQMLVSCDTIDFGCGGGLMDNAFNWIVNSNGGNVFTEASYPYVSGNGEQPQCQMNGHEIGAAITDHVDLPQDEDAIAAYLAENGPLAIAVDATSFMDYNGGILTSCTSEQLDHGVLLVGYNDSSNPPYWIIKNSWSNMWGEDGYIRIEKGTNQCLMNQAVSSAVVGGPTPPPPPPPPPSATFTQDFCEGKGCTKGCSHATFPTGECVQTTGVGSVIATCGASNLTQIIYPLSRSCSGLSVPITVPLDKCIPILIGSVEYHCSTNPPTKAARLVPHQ
Chain of Falcipain 2 (Q8I6U4 244-484): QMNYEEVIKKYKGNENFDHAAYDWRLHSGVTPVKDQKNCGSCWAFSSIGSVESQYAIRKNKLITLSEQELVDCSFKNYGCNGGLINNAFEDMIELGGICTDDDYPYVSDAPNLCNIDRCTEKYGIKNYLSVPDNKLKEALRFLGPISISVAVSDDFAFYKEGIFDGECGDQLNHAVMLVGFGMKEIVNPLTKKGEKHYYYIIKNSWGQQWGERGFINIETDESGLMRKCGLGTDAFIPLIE
Chain of Schisto B 1 (P25792 89-340): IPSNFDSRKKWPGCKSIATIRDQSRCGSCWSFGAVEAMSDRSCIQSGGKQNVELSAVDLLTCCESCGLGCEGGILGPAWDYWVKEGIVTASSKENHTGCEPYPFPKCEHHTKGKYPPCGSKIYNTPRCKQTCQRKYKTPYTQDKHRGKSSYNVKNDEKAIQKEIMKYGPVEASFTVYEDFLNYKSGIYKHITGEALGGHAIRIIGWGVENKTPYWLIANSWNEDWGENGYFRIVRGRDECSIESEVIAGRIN
Chain of Cruzain (P25779 123-337): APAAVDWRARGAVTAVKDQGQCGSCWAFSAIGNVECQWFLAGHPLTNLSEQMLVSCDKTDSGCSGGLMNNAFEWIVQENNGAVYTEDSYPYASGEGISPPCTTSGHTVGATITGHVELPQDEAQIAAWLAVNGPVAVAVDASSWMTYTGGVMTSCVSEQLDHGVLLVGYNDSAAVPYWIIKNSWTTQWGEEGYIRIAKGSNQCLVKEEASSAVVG
Chain of Schisto B 2 (Q95PM1 entry or part of it): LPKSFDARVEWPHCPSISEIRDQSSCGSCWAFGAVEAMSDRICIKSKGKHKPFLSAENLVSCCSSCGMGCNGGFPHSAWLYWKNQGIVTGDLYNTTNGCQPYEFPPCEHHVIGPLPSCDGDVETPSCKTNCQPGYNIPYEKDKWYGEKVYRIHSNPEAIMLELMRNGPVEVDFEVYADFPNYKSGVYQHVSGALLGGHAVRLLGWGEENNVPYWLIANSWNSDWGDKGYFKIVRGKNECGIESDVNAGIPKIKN

In the case of `COc1ccc2oc(C(=O)N[C@@H](CC(C)C)C(=O)N[C@H]3CCCN(S(=O)(=O)c4ccc(F)cc4)CC3=O)cc2c1` [Example 85], the Ki (as a rule, the equilibrium dissociation constant of an inhibitor or competing ligand from its target) stood at 130 nM in experiment [1] and 45 nM in experiment [2].
On the same counts, the results for `CC(C)CC(NC(=O)c1cc2ccccc2o1)C(=O)N[C@@H]1CCCN(S(=O)(=O)c2ccc(F)cc2)CC1=O` (stereo partly shown) [Example 109] are 120 nM and 31 nM.
The corresponding values for `COc1cccc(S(=O)(=O)N2CCC[C@H](NC(=O)[C@H](CC(C)C)NC(=O)c3cc4ccccc4s3)C(=O)C2)c1` [Example 140, Benzo[b]thiophene-2-carboxylic acid-{(S)-1-[1-(3-methoxy-benzenesulfonyl)-3-oxo-azepan-4-ylcarbamoyl]-3-methyl-butyl}-amide] are 280 nM and 68 nM.
Turning to `COc1cccc(S(=O)(=O)N2CCC[C@H](NC(=O)[C@H](CC(C)C)NC(=O)c3cc4ccccc4n3C)C(=O)C2)c1` [Example 141, 1-Methyl-1H-indole-2-carboxylic acid-{(S)-1-[1-(3-methoxy-benzenesulfonyl)-3-oxo-azepan-4-ylcarbamoyl]-3-methyl-butyl}-amide], the Ki in experiment [1] was determined as 400 nM; in experiment [2], 50 nM.
The corresponding values for `CC(C)C[C@@H](NC(=O)c1cc2cc(OCCN3CCOCC3)ccc2o1)C(=O)NC1CCCN(C(=O)Cc2cccc(-c3ccccn3)c2)CC1=O` (single isomer, unassigned) [Example 4] are 320 nM and 100 nM.
On the same counts, the results for `CC(C)C[C@H](NC(=O)c1cc2ccccc2o1)C(=O)N[C@H]1CCCN(S(=O)(=O)c2cccc(Cl)c2)CC1=O` [Example 88, Benzofuran-2-carboxylic acid-{(S)-1-[1-(3-chloro-benzenesulfonyl)-3-oxo-azepan-4ylcarbamoyl]-3-methyl-butyl}-amide] are 140 nM and 77 nM.
For `CC(C)C[C@@H](NC(=O)c1ccnc2ccccc12)C(=O)N[C@@H]1CCCN(S(=O)(=O)c2ccccn2)CC1=O` (single isomer, unassigned) [Example 153], the Ki in experiment [3] was 2.4 nM; in experiment [4] it was 1.6 nM; in experiment [5] it was 4.5 nM.
On the same counts, the results for `CC(C)C[C@@H](NC(=O)c1ccc2[nH]ccc2c1)C(=O)NC1CCCN(S(=O)(=O)c2cccc[n+]2[O-])CC1=O` (single isomer, unassigned) [Example 64] are 4.1 nM, 2.7 nM and 6.2 nM.
On the same counts, the results for `COc1ccc2oc(C(=O)N[C@H](CC(C)C)C(=O)N[C@@H]3CCCN(S(=O)(=O)c4ncccc4C)CC3=O)cc2c1` (single isomer, unassigned) [Example 171] are 2.5 nM, 3.2 nM and 4.9 nM.
On the same counts, the results for `CC(C)C[C@H](NC(=O)c1cc2ccccc2s1)C(=O)N[C@H]1C[C@H](C)CN(S(=O)(=O)c2ccccn2)CC1=O` [Example 197, Benzo[b]thiophene-2-carboxylic acid {(S)-3-methyl-1-[6-methyl-3-oxo-1-(pyridine-2-sulfonyl)-azepan-4-ylcarbamoyl]-butyl}-amide] are 3.1 nM, 2.3 nM and 4.1 nM.
As for `CC(C)C[C@H](NC(=O)c1ccc2ccccc2n1)C(=O)N[C@H]1CCCN(S(=O)(=O)c2ccc(F)cc2)CC1=O` [Example 83], the Ki in experiment [1] was 230 nM; in experiment [2], 61 nM.
For the molecule `Cc1c(C(=O)N[C@@H](CC(C)C)C(=O)N[C@H]2C[C@H](C)CN(S(=O)(=O)c3ccccn3)CC2=O)oc2ccccc12` [Example 199, 3-Methyl-benzofuran-2-carboxylic acid {(S)-3-methyl-1-[6-methyl-3-oxo-1-(pyridine-2-sulfonyl)-azepan-4-ylcarbamoyl]-butyl}-amide], the inhibition constant Ki in experiment [3] worked out at 2.3 nM; in experiment [4], 2 nM; in experiment [5] it was 5.6 nM.
On the same counts, the results for `CC(C)CC(NC(=O)c1nc(-c2ccccc2)oc1C(F)(F)F)C(=O)NC1CCCN(S(=O)(=O)c2ccccn2)CC1=O` (single isomer, unassigned) [Example 105] are 13 nM, 5.3 nM and 84 nM.
The corresponding values for `Cc1csc(C(=O)NC(CC(C)C)C(=O)N[C@H]2CCCN(C(=O)Nc3ccccc3F)CC2=O)c1` (stereo partly drawn) [Example 220, 4-Methyl-2-carboxylic acid {(S)-1-[-(2-fluoro-phenylcarbamoyl)-3-oxo-azepan-4-ylcarbamoyl]-3-methyl-butyl}-amide] are 8.7 nM, 4.2 nM and 3.9 nM.
On to `COc1cccc2cc(C(=O)N[C@@H](CC(C)C)C(=O)N[C@H]3CCCN(S(=O)(=O)c4ccccc4F)CC3=O)oc12` [Example 93, 7-Methoxy-benzofuran-2-carboxylic acid-{(S)-1-[1-(2-fluoro-benzenesulfonyl)-3-oxo-azepan-4-ylcarbamoyl]-3-methyl-butyl}-amide], for which the Ki in experiment [3] worked out at 11 nM; in experiment [4] it was 11 nM; in experiment [5], 7 nM.
`COc1ccc2oc(C(=O)N[C@@H](CC(C)C)C(=O)N[C@H]3C[C@H](C)CN(S(=O)(=O)c4ccccn4)CC3=O)cc2c1` [Example 198, 5-Methoxy-benzofuran-2-carboxylic acid {(S)-3-methyl-1-[6-methyl-3-oxo-1-(pyridine-2-sulfonyll)-azepan-4-ylcarbamoyl]-butyl}-amide]: the figures for the Ki in experiment [3], in experiment [4] and in experiment [5] were 1.9 nM, 1.6 nM and 3.6 nM, respectively.
On the same counts, the results for `CC(C)C[C@@H](NC(=O)c1cc2ccccc2o1)C(=O)N[C@@H]1CCCN(S(=O)(=O)c2cccc[n+]2[O-])CC1=O` [Example 45] are 4.1 nM, 2.8 nM and 5.7 nM.
On the same counts, the results for `CC(C)C[C@H](NC(=O)c1cc2ccccc2s1)C(=O)N[C@H]1CCCN(S(=O)(=O)c2nccs2)CC1=O` [Example 127, Benzo[b]thiophene-2-carboxylic acid {(S)-3-methyl-1-[3-oxo-1-(thiazole-2-sulfonyl)-azepan-4-ylcarbamoyl]-butyl}amide] are 2.8 nM, 4.7 nM and 8.1 nM.
For `COc1ccc2oc(C(=O)N[C@@H](CC(C)C)C(=O)N[C@H]3CCCN(S(=O)(=O)c4nccs4)CC3=O)cc2c1` [Example 124, 5-Methoxybenzofuran-2-carboxylic acid {(S)-3-methyl-1-[3-oxo-1-(thiazole-2-sulfonyl)-azepan-4-ylcarbamoyl]-buty}amide], the Ki in experiment [3] turned out to be 2 nM; in experiment [4], 2.2 nM; in experiment [5], 4.9 nM.
Turning to `CC(C)C[C@H](NC(=O)c1cc2ccccc2n1C)C(=O)N[C@H]1CCCN(S(=O)(=O)c2ccc(F)cc2)CC1=O` [Example 84], the inhibitory constant (Ki) was determined as 1100 nM in experiment [1] and 160 nM in experiment [2].
Turning to `CC(C)C[C@H](NC(=O)c1cc2sccc2s1)C(=O)N[C@H]1CCCN(C(=O)Nc2ccccc2F)CC1=O` [Example 218, Thieno[3,2-b]thiophene-2-carboxylic acid {(S)-1-[1-(2-fluoro-phenylcarbamoyl)-3-oxo-azepan-4-ylcarbamoyl]-3-methyl-butyl}-amide], the inhibition constant (Ki) in experiment [3] worked out at 5.4 nM; in experiment [4], 2.3 nM; in experiment [5], 3.1 nM.
On the same counts, the results for `CC(C)C[C@H](NC(=O)c1cc2ccccc2o1)C(=O)N[C@H]1CCCN(S(=O)(=O)c2cn(C)cn2)CC1=O` [Example 42, Benzofuran-2-carboxylic acid {(S)-3-methyl-1-[1-(1-methyl-1H-imidazole-4-sulfonyl)-3-oxo-azepan-4-ylcarbamoyl]-butyl}amide] are 2 nM, 1.8 nM and 5.3 nM.
